Melting point data for 90 molecules are collected here from a melting point compilation (Tetko et al.; mined from patent text by program, amines drawn as free bases though some values may be those of a salt).

The structures appear in SMILES notation.

On to `O=C(O)Cc1c(C(=O)c2ccc3c(c2)OCCO3)[nH]c2ccc(C(F)(F)F)cc12`, for which the melting point was greater than 250 °C.

As for `CC(C)n1c(=O)ccc2cnc(Nc3ccc(N4CCN(C)CC4)cc3)nc21`, the melting point lay within 221 to 222 °C.

For `CCOP(=O)(OCC)C1CNc2ccc(C(F)(F)F)cc2C1` (stereo not given), the melting point was determined as 112 °C.

Turning to `CCCOc1nsnc1S(C)(=O)=O`, the melting point was in the range of 30 to 31 °C.

`COc1ccc2c(c1)sc1nc(C(=O)C3CC3)cn12` came in with a melting point of 213 °C.

As for `CCOCc1nc2c(N)nc3cc(-c4cccnc4)ccc3c2n1CCCCNC(=O)c1ccc(C(OCCN(C)C)c2ccccc2)cc1` (stereo not given), the melting point is 157 to 161 °C.

`CON=CCOc1ccccc1S(N)(=O)=O` returned a melting point of 103 to 105 °C.

The molecule `O=C(Nc1ccc(-n2nc(C(F)(F)F)cc2C(F)(F)F)cn1)c1ccccc1F` registered a melting point of 153 to 155 °C.

Take `CCO[C@@H]1C[C@H](C(=O)Nc2ccc(N3CCOCC3=O)c(C)c2)N(C(=O)Nc2ccc(Cl)cc2)C1`: the melting point worked out at 117 °C.

Turning to `CCCCc1oc2ccc(NS(=O)(=O)c3ccc(C)cc3)cc2c1C(=O)c1ccc(OCCCN(CCCC)CCCC)cc1`, the melting point came to 110 °C.

For the molecule `O=C(C(=O)c1ccc(Oc2ccc(Br)cc2)cc1)c1ccccc1`, the melting point fell in the range of 85 to 86 °C.

As for `Cc1cccc(NC(=O)NC(CCC(=O)O)C(=O)N(CC(=O)OC(C)(C)C)c2ccccc2)c1` (racemic), the melting point amounted to 191 °C.

In turn, `CC(C)n1cnc2c(NCc3ccccc3)nc(NCCCO)nc21` yielded a melting point of 98 to 101 °C.

Molecule `Clc1ccc(Cc2cccnn2)c(Cl)c1` gave a melting point of 67 to 69 °C.

In the case of `Cc1ccc(O)cc1NC(=O)CC12CC3CC(CC(C3)C1)C2`, the melting point lay in the range of 255 to 256 °C.

`Cc1ccc(-c2ccc(C(=O)Nc3ccc4cc(CN5CCCC5)cnc4c3F)c(F)c2)cc1` displayed a melting point of 173 °C.

Molecule `Cc1ccc2c(Cl)ccnc2c1[N+](=O)[O-]` displayed a melting point of 140 to 147 °C.

Turning to `CC1(C)CCc2c(N3CCOCC3)nc3sc4c(NCc5ccccn5)ncnc4c3c2C1`, the melting point came out at 218 °C.

On to `FCc1nc(C#CCCc2cn3cc(F)ccc3n2)cs1`, for which the melting point lay in the range of 82 to 84 °C.

For the molecule `CCOC(=O)C1CCN(c2nnc(NCc3ccc(OC)c(Cl)c3)c3cc([N+](=O)[O-])ccc23)CC1`, the melting point lay in the range of 208 to 210 °C.

The molecule `CC(O)C1C(=O)N2C1=CC(=O)C2C(=O)OCc1ccc([N+](=O)[O-])cc1` (stereo not given) came in with a melting point of 92 to 98 °C.

In turn, `O=C1CCCc2c(-c3ccccc3)[nH]c(-c3ccncc3)c21` gave a melting point of 254 to 255 °C.

In turn, `Cc1oc(-c2ccco2)nc1/C=C/c1ccc(C=O)cc1` showed a melting point of 209 to 210 °C.

As to `CN1CCCC1=NC(=O)Nc1cccc(Br)c1`, the melting point lay within 138 to 149 °C.

As for `Cc1ccc(NC(=O)C(C)C)c(-c2ccnc(SC(F)(F)F)n2)c1`, the melting point fell in the range of 114 to 116 °C.

`CCC(=O)Oc1ccc(C(=O)c2ccccc2)cc1` gave a melting point of 53.5 to 54.5 °C.

Take `CCOC(=O)C(=CNN(C)C)C(=O)c1cc(F)c(F)c(F)c1F`: the melting point worked out at 81 °C.

Regarding `O=C(O)CCOc1cccc2cccnc12`, the melting point lay within 211 to 213 °C.

On to `ClC(=NN=Cc1cccnc1)c1cccnc1`, for which the melting point lay within 103 to 105 °C.

With `Cc1oc(-c2ccc(C(F)(F)F)cc2)nc1-c1ccc2c(Br)c(OC(Cc3ccccc3)C(=O)O)ccc2c1` (stereo not given), the melting point lay within 195 to 197 °C.

Consider `O=C1NC(=O)C(Sc2ccc3ccccc3c2Br)S1` (stereo not given), for which the melting point was in the range of 128 to 129 °C.

For the molecule `CN1C(=O)CC(c2ccc(N)cc2)C1C(O)c1ccc(-c2ccccc2)s1` (stereo not given), the melting point lay in the range of 221 to 222 °C.

With `CC(C)OC(=O)C(Cl)(Cl)P(=O)(OC(C)C)c1ccccc1` (stereo not given), the melting point was in the range of 42 to 44 °C.

The molecule `CSc1cc(C)nc(SC)c1NC(=O)CCl` registered a melting point of 190 to 192 °C.

For the molecule `Nc1nc(N)c2ncn(COCCOCCO)c2n1`, the melting point lay in the range of 76 to 82 °C.

Take `CCOC(=O)C(C)COc1ccccc1-c1cc(C#N)c(=O)[nH]c1C` (stereo not given): the melting point fell in the range of 167 to 170 °C.

Molecule `Cc1c(O)ccc2c(C(F)(F)F)cc(=O)oc12` had a melting point of 114 to 116 °C.

`CCCCCC(=O)Nc1ccc2ccn(CCCCCCCC(=O)OC)c2c1` registered a melting point of 61 to 63 °C.

Take `CCCN1CCC(c2ccccc2)=C(C(=O)NCc2ccccc2)C1`: the melting point was in the range of 96 to 98 °C.

With `COc1cc(N)c(Cl)cc1C(=O)NC1CCN(CC2CCN(C(=O)C3CCOCC3)CC2)CC1`, the melting point was 235 to 237 °C.

In the case of `CS(=O)(=O)c1ccc(-c2coc3ccc(-c4nnc(O)o4)cc23)cc1`, the melting point lay in the range of 284 to 285 °C.

`CC(=O)Cc1ccc2c(c1)C1(C)CCN(C)C1N2C` (stereo not given) yielded a melting point of 115 to 125 °C.

With `Cc1cnc2nc(C(F)(F)F)[nH]c(=O)c2c1`, the melting point fell in the range of 270 to 272 °C.

Consider `NC1=NC(c2cccc(-c3cccnc3F)c2)C2=NC(c3ccc(OC(F)F)cc3)C3(CCC3)CN12` (stereo not given), for which the melting point lay within 220 to 226 °C.

In the case of `COC(=O)c1ccc(Cc2cn(C)c3ccc(C(=O)OC)cc23)c(OC)c1`, the melting point is 137 to 140 °C.

Molecule `O=C(O)CN(CCc1ccccc1)C(=O)CCc1nc2c(F)c(F)cc(F)c2s1` returned a melting point of 139 to 140 °C.

Take `CCC1(COC(=O)C(C)(C)C)COC(=O)C(CC)(CC)N1` (stereo not given): the melting point was 37 to 41 °C.

As to `C[C@@H](N(C(=O)CN)C(=O)c1ccc(C(F)(F)F)cc1)[C@](O)(Cn1cncn1)c1ccc(F)cc1F` (relative stereo), the melting point lay in the range of 147 to 148 °C.

`C=C1CCCCCCC(C(=O)OCC)NC1=O` (stereo not given) gave a melting point of 91 to 92 °C.

As to `O=c1[nH]c2cccnc2n1-c1ccccc1F`, the melting point was 195 °C.

With `O=C(NC(=O)c1ccccc1F)Nc1ccc(F)c(C(F)(F)F)c1Cl`, the melting point was found to be 173 °C.

In turn, `COc1cccc(F)c1-c1cc(NC(=O)C2CCNCC2)ncn1` showed a melting point of 140 to 143 °C.

As for `Cc1ccc(C(=O)Nc2c(NC(=O)CN3CCN(C)CC3)ccc3c2C(=O)c2ccccc2C3=O)cc1`, the melting point lay in the range of 214 to 215 °C.

Molecule `Cn1ccnc1COc1ccc(-c2cc(-c3c[nH]nc3-c3ccccn3)ccn2)cc1` yielded a melting point of 112 °C.

As to `CC(C)(C)NC(=O)[C@@H]1[C@@H](O)CCN1C(=O)OC(C)(C)C`, the melting point lay within 122 to 124 °C.

`COc1cc(Nc2nc3cccc(-c4cccnc4)c3o2)cc(OC)c1OC` registered a melting point of 165 to 170 °C.

In turn, `Cc1csc2cc(C(=O)O)ccc12` showed a melting point of 230 to 232 °C.

The molecule `CN(C)CCCCC(=O)c1ccc2c(c1)C(=O)c1cc(C(=O)CCCCN(C)C)ccc1-2` showed a melting point of 150 to 151 °C.

Regarding `BrCc1ccc(OCC(c2ccccc2)c2ccccc2)cc1`, the melting point was in the range of 70 to 73 °C.

Turning to `O=C(NC(=O)C(c1ccccc1)c1ccccc1)OC1CCCCC1`, the melting point lay within 117 to 119 °C.

Turning to `COc1ccc2c(C(C)C(=O)OC3CC(=O)NC3=O)cccc2c1` (stereo not given), the melting point is 126 °C.

Regarding `CCCCCCCCCCCCCCCCOc1ccc(-c2nc(CC(=O)O)c(Oc3ccc(Cl)cc3)o2)cc1`, the melting point lay within 76 to 77 °C.

As for `Cc1cc2c(cc1C)OC(CCN1CCC3(CC1)CNC(=O)CO3)CO2` (stereo not given), the melting point is 164 to 166 °C.

As to `CCOC(CNC(=S)Nc1cccc2nc(C)ccc12)OCC`, the melting point was 181 to 185 °C.

As for `O=C1CC(c2ccccc2)Oc2cc(OCCn3ccnc3)ccc21` (stereo not given), the melting point lay in the range of 139 to 140 °C.

`S=C=Nc1ccc2sc(-c3cccnc3)nc2c1` gave a melting point of 160 to 162 °C.

The molecule `Clc1cc(Nc2ccc(N3CCOCC3)cc2)ncn1` came in with a melting point of 165 to 166 °C.

Regarding `COCc1ncc(C(=O)O)s1`, the melting point was determined as 131 °C.

In turn, `CCOC(=O)c1c2c(nc3ccccc13)CCN(C(=O)OCC)CC2` returned a melting point of 94 °C.

On to `Clc1ccc2nc(Cl)nnc2c1`, for which the melting point fell in the range of 113 to 115 °C.

Take `COc1ccc(C(CC(=O)c2ccccc2)C(=O)O)cc1` (stereo not given): the melting point fell in the range of 157 to 158 °C.

For `COC(=O)c1cc(CCc2cc(OC)ccc2OC)ccc1NC(C)=O`, the melting point is 81 to 83 °C.

Molecule `COc1ccc2c(c1)CCC1C2CCC2(C)C(NCCCCCCCCN)CCC12` (stereo not given) displayed a melting point of 47.5 to 49 °C.

Turning to `O=C(O)c1ccc2c(c1)OC(c1cc(F)cc(F)c1)(c1cc(F)cc(F)c1)O2`, the melting point amounted to 96 °C.

In the case of `CC(C)c1cccc(C(C)C)c1NC(=O)Nc1ccc(-c2ccccc2)nc1-c1ccccc1`, the melting point is 206 to 208 °C.

As to `O=C(Nc1ccc2ccc(Oc3ccccc3)nc2n1)C1=CCC=CC1`, the melting point stood at 95 °C.

`OCCCn1c(S)nc2ccccc21`: the melting point stood at 110 °C.

On to `COc1cn(-c2ccc(N3CCC(F)(F)C3)cc2F)nc(-c2ccnn2-c2ccccc2)c1=O`, for which the melting point lay in the range of 195 to 197 °C.

As for `CCCc1c(OCCCCCC(=O)NC(C)CCCc2cccnc2)ccc(C(C)=O)c1O` (stereo not given), the melting point lay in the range of 63 to 66 °C.

As for `CS(=O)(=O)c1ccc(CC(=O)c2c(O)c3cccnc3n(-c3ccccc3)c2=O)cc1`, the melting point lay within 260 to 262 °C.

`CCC1C(=O)C2C3CCC(C(C)CCC(=O)O)C3(C)CCC2C2(C)CCC(O)CC12` (stereo not given) showed a melting point of 185 to 188 °C.

As to `CC(C)c1cccc(C(C)C)c1NC(=O)C(NCc1ccccc1)c1ccccc1` (stereo not given), the melting point fell in the range of 134 to 137 °C.

The molecule `CCCOc1ccc(/C=C(\C)C(=O)O)cc1` had a melting point of 171 °C.

With `O=C(O)[C@@H]1O[C@@H]1c1ccccc1`, the melting point lay in the range of 81.5 to 83 °C.

`O=C(O)CCCCOc1ccccc1OCc1ccccc1` had a melting point of 74 to 75 °C.

Turning to `Cc1ccc(NC(=O)c2cccc(N(C)C)c2)cc1NC(=O)c1cccc(NS(C)(=O)=O)c1`, the melting point lay within 239 to 240 °C.

With `Nc1c(N=O)c(=O)n(CC2CC2)c(=O)n1CC1CC1`, the melting point lay within 228 to 229 °C.

For the molecule `CN(c1ccc(O)cc1)c1nc2ccc(Br)cc2o1`, the melting point was found to be 195 °C.

As for `Cc1ccc2nc3cc(C)c(=O)c(Cl)c-3sc2c1`, the melting point fell in the range of 193 to 195 °C.

Take `CCOC(=O)CN1CCN(C(=O)OC(C)(C)C)CC1`: the melting point lay within 67 to 69 °C.
